The subject of data set [1] is methyl bromide-degrading bacteria. The data set is described as follows: Methyl bromide removal in the biotrickling filter. An excerpt: A biotrickling filter was constructed as schematically represented in FIG. 2. The apparatus included three packed bed sections filled with lava rock, perlite or polyurethane as packing materials. Other equipment included an air supply, a methyl bromide supply, recycle liquid circulation, a nutrient supply (as a complete mineral medium), and a pH control by automatic addition of NaOH. The biotrickling filter was usually operated at standard conditions as specified in Table 1.
Cultures of methyl bromide-degrading bacteria were obtained by inoculating or exposing the substrate component of the apparatus with a variety of natural sources or materials, such as soil and sediment. A continuous supply of a low concentration (about 0 to about 10 g/m^3) of methyl bromide was supplied to the apparatus. The first signs of methyl bromide removal were observed after about 6-12 days of operation of the apparatus. The methyl bromide elimination capacity seemed to reach a maximum value after about 35-40 days of operation. During operation, the pH in the recycle liquid declined, small amounts of bromide were produced in the recycle liquid, and the CO2 concentration in the outlet air increased.
The fate of methyl bromide in the biotrickling filter was determined by comparing the rate of methyl bromide removal with the rates of CO2 production, bromide ion production and NaOH consumption as expected from the biodegradation reaction stoichiometry. Biodegradation of methyl bromide and pH control occur according to the following reactions 2CH3Br+3O2→2HBr+2 CO2+2H2O Equation 3 HBr+NaOH→NaBr+H2O Equation 4
The effect of the liquid recycle or trickling rate was examined at the lower and higher end of the range of recycle rates commonly employed in biotrickling filters. Methyl bromide removal was the same at a trickling rates of 2.55 and 22.2 L/h, corresponding to superficial liquid velocities of 2.0 and 17.7 m/h, respectively (Table 2).
The maximum elimination capacity of methyl bromide in the biotrickling filter was determined by stepwise increasing the methyl bromide concentration. Depending on the inlet concentration, the following phases can be distinguished: […]

Data set [2] is described as follows: Air/organic phase partition coefficient of methyl bromide. It counts as physicochemical. The note with it: gas over liquid concentration. As to the method:
If necessary, the air/organic phase partition coefficients of methyl bromide in these and other potential organic liquids may be determined by adding a known amount of an organic liquid and methyl bromide to a 250 mL flask with TEFLON-lined silicon septa. A gas headspace may be analyzed for methyl bromide by gas chromatography, and the partition of methyl bromide may be calculated. In certain embodiments, corn oil may be preferred since the air/corn oil partition coefficient for methyl bromide is 0.02, i.e., about ten times lower than with water. Based on calculations, a Henry coefficient of 0.005 may be ideal for load dampening. The organic phase should meet various requirements, such as a low vapor pressure, low toxicity, non-miscibility with water, and being non-biodegradable. Additional examples of liquids may include di-n-octylphtalate, di-n-nonylphtalate, polydimethylsiloxane, and silicone oil. Methyl bromide concentrations in the inlet and outlet air may be determined (continuously or semi-continuously) with a photoionization detector (PID) analyzer, for example. […] Potential carry over of aerosol to the outlet stream may be determined to evaluate whether a demister might be beneficial. For either the GAC or liquid absorption system, the results may be analyzed with mathematical model (see FIG. 19).

Each structure is given as a SMILES string.

Take `[Br-].[Na+]` [NaBr, sodium bromide]: the “NaBr concentration in the recycle liquid at which inhibition of methyl bromide removal was observed” value in data set [1] (recycle liquid (48 g/L)) was at least 0.47 M.

On to `CBr` [Methyl bromide], for which the Removal efficiency is recorded as 63% in data set [1] (gas flow cocurrent, EBRT = 94 s, inlet 3.042 g/m^3); 70% in data set [1] (gas flow countercurrent (standard operation), EBRT = 94 s, inlet 3.713 g/m^3); “greater than 96%” in data set [1] (low inlet concentrations increasing up to 3 g/m^3); 89% in data set [1] (superficial liquid velocity 2.0 m/h (standard operation), EBRT = 94 s, inlet 2.927 g/m^3); 91% in data set [1] (superficial liquid velocity 17.7 m/h, EBRT = 94 s, inlet 2.927 g/m^3). The “Concentration at which a reduction of the elimination capacity (toxic effect on microorganisms) was observed” value in data set [1] (inlet air concentration (3300 ppm)) is reported as “greater than 13 g/m^3”. In addition, the “Air/corn oil partition coefficient” value in data set [2] was 0.02.

For the origin of these results see US7311743B2, “Biofiltration apparatus and method for reducing methyl bromide concentration in a volume of gas” (Energy Resource Institute, Inc., priority 2004, dated 2007).
